The test addresses T1, SOS1 protein (Homo sapiens, UniProt Q07889).
T1 sequence (Q07889 1-1333): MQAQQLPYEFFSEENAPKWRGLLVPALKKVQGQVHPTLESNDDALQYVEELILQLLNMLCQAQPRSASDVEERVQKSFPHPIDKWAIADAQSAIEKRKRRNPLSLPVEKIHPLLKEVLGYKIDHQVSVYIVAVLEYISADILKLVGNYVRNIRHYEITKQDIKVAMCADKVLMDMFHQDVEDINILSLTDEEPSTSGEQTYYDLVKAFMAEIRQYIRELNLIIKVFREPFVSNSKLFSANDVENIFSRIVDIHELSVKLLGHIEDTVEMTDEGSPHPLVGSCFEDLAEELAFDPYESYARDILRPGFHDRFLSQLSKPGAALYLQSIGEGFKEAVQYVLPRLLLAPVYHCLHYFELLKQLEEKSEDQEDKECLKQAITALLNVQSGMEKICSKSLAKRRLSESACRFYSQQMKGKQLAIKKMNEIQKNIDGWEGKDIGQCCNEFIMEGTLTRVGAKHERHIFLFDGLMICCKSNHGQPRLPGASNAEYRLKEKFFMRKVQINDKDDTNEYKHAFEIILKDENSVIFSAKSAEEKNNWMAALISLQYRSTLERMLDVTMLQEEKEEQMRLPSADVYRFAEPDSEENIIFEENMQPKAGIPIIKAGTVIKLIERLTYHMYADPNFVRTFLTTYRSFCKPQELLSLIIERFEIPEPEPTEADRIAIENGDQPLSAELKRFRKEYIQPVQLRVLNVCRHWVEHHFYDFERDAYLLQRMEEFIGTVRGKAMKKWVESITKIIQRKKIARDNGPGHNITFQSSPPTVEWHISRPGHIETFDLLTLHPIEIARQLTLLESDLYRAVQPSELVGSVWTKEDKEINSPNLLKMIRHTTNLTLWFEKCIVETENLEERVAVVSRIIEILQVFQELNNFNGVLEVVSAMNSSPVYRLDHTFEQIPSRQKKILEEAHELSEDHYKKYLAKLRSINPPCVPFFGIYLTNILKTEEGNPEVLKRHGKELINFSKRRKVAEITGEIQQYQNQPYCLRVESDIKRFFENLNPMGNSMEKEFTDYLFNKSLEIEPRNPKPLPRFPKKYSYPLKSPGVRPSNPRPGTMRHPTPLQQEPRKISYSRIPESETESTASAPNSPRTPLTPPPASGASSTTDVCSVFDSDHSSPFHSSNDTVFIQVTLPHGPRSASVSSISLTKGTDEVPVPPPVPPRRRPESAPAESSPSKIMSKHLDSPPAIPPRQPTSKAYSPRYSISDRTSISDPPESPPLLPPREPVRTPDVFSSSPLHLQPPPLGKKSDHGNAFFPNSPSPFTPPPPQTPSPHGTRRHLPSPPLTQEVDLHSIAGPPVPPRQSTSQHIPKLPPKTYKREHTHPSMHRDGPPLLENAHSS
The experiment in a line: SOS1 degradation assay (Western blot), NCI-H358 cells. The format is cell-based. The following applies: SOS1 degradation, NCI-H358 cells, 24 h, Western blot; for DC50: read-out: NCI-H358 (G12C) DC50; for Dmax: read-out: NCI-H358 (G12C) Dmax. On the set-up: The degradation of SOS1 by the compounds was investigated on KRAS G12C mutant human non-small cell lung cancer cells NCI-H358; host or cells: NCI-H358 (human cancer cell lines). Here is the method:
The specific procedures were as follows:
0.95 mL of cells were seeded into each well of a 24-well cell culture plate to achieve a cell density of 5×10^5 cells/well; the cell plate was incubated in an incubator at 37° C. with 5% CO2 overnight. Then 50 μL of the compound solution after dilution was added to each of the wells with the corresponding cells, so that the final concentration of the compound was in a range of 0.03-3000 nM. […] After dosing, the cell plate was incubated in an incubator at 37° C. with 5% CO2 for 24 h. […] After the plate was left to stand on ice for 30 min, the protein lysate in each well was transferred to a 1.5 mL centrifuge tube and centrifuged at 15000 g for 20 min at 4° C. The cell lysate supernatant after centrifugation was cryopreserved at −80° C. for testing and was used for determining the degradation level of the SOS1 protein by a WB method. The concentration of total protein in the cell lysate supernatant was determined using the BCA Protein Quantification Kit (Tiangen, PA115-02).
The concentration of total protein in the cell lysate was determined by BCA. The total protein was adjusted to 0.5 μg/μL with PBS and 5× SDS-PAGE protein loading buffer (Beyotime, P0015L), incubated in a water bath at 100° C. for 15 min, incubated in an ice bath on ice for 5 min, centrifuged at 14000 g for 1 min at 4° C., and mixed well as a loading sample for WB. Protein electrophoresis was performed on a precast gel (KeyGEN, KGMGO10W15) with a loading volume of 10 μL (total protein: 5 μg) using a Tris-MOPS-SDS running solution (Adamas, P1598253) at a constant voltage of 120 V for 55 min. After the electrophoresis, the protein on the gel strip was transferred to a PVDF membrane at a constant current of 250 mA for 65 min. After the membrane transfer, the membrane was incubated in 1× QuickBlock blocking buffer (Beyotime, P0235) for 30 min at room temperature. […] The protein map was subjected to gray value analysis by the chemiluminescence imaging system from Clinx. […] Then the degradation rate was calculated by comparing the gray correction value with the gray correction value of the control group. Then nonlinear curve fitting was performed by GraphPad Prism 8 in the logarithmic concentration-inhibition rate to obtain the DC50 and Dmax values of the compounds.

Structures are written as SMILES.

Regarding `COc1cc2nc(C)nc(N[C@H](C)c3cc(N)cc(C(F)(F)F)c3)c2cc1C1CCN(C(=O)C2CCN(CC3CCC4(CC3)CCN(C(=O)c3ccc(Cl)c(N5CCC(=O)NC5=O)c3)CC4)CC2)CC1` [Example 4], the DC50 lay within 0.05 to 0.1 µM and the Dmax fell in the range of 30 to 50%.
In the case of `CCNc1cc([C@@H](C)Nc2nc(C)nc3cc(OC)c([C@H]4CC[C@H](C(=O)N5CCN(CC6CCC7(CC6)CCN(C(=O)c6ccc(Cl)c(N8CCC(=O)NC8=O)c6)CC7)CC5)CC4)cc23)cc(C(F)(F)F)c1` [Example 35, 1-(2-chloro-5-(9-((4-((1R,4R)-4-(4-(((R)-1-(3-(ethylamino)-5-(trifluoromethyl)phenyl)ethyl)amino)-7-methoxy-2-methylquinazolin-6-yl)cyclohexane-1-carbonyl)piperazin-1-yl)methyl)-3-azaspiro[5.5]undecane-3-carbonyl)phenyl)dihydropyrimidine-2,4(1H,3H)-dione], the “NCI-H358 (G12C) Dmax” value is “C (when 30≤Dmax (%)<50, the level was C)” and the DC50 fell in the range of 1 to 10 µM.
Turning to `COc1cc2nc(C)nc(N[C@H](C)c3cc(N)cc(C(F)(F)F)c3)c2cc1[C@H]1CC[C@H](C(=O)N2CCC(CCC3CCN(C(=O)c4ccc(Cl)c(N5CCC(=O)NC5=O)c4)CC3)CC2)CC1` [Example 15, 1-(5-(4-(2-(1-((1R,4R)-4-(4-(((R)-1-(3-amino-5-(trifluoromethyl)phenyl)ethyl)amino)-7-methoxy-2-methylquinazolin-6-yl)cyclohexane-1-carbonyl)piperidin-4-yl)ethyl)piperidine-1-carbonyl)-2-chlorophenyl)dihydropyrimidine-2,4(1H,3H)-dione], the DC50 lay within 1 to 10 µM and the Dmax is less than 30%.
On the same counts, the results for `COc1cc2nc(C)nc(N[C@H](C)c3cc(N)cc(C(F)(F)F)c3)c2cc1[C@H]1CC[C@H](C(=O)N2CCC(CCN(C)CC3CCN(C(=O)c4ccc(Cl)c(N5CCC(=O)NC5=O)c4)CC3)CC2)CC1` [Example 25, 1-(5-(4-(((2-(1-((1R,4R)-4-(4-(((R)-1-(3-amino-5-(trifluoromethyl)phenyl)ethyl)amino)-7-methoxy-2-methylquinazolin-6-yl)cyclohexane-1-carbonyl)piperidin-4-yl)ethyl)(methyl)amino)methyl)piperidine-1-carbonyl)-2-chlorophenyl)dihydropyrimidine-2,4(1H,3H)-dione] are 1 to 10 µM and less than 30%.
On the same counts, the results for `COc1cc2nc(C)nc(N[C@H](C)c3cc(N)cc(C(F)(F)F)c3)c2cc1OC1CCN(CC2CCC3(CC2)CCN(C(=O)c2ccc(Cl)c(N4CCC(=O)NC4=O)c2)CC3)CC1` [Example 6, (R)-1-(5-(9-((4-((4-((1-(3-amino-5-(trifluoromethyl)phenyl)ethyl)amino)-7-methoxy-2-methylquinazolin-6-yl)oxy)piperidin-1-yl)methyl)-3-azaspiro[5.5]undecane-3-carbonyl)-2-chlorophenyl)dihydropyrimidine-2,4(1H,3H)-dione] are 1 to 10 µM and 30 to 50%.
Take `COc1cc2nc(C)nc(N[C@H](C)c3cc(N)cc(C(F)(F)F)c3)c2cc1[C@H]1CC[C@H](C(=O)N2CCN(CC#CC3CCN(C(=O)c4ccc(Cl)c(N5CCC(=O)NC5=O)c4)CC3)CC2)CC1` [Example 27, 1-(5-(4-(3-(4-((1R,4R)-4-(4-(((R)-1-(3-amino-5-(trifluoromethyl)phenyl)ethyl)amino)-7-methoxy-2-methylquinazolin-6-yl)cyclohexane-1-carbonyl)piperazin-1-yl)prop-1-yn-1-yl)piperidine-1-carbonyl)-2-chlorophenyl)dihydropyrimidine-2,4(1H,3H)-dione]: the DC50 lay in the range of 1 to 10 µM and the Dmax was less than 30%.

Source of the values: patent US20240261417A1, “SOS1 DEGRADING AGENT AND PREPARATION METHOD THEREFOR AND APPLICATION THEREOF” (SHANGHAI LEADINGTAC PHARMACEUTICAL CO. LTD., priority 2021, published 2024).
